Measured values from patent US9168281B2, “Kit for treating a wound” (priority 2011, dated 2015).

Columns and labels:
Test in all cases: Phenol Red Dextrose broth growth test of product containing CPC
Assay type in all cases: cell-based
Details in all cases: 37° C., 24 hours
Staph aureus (MRSA) = test system: Staph aureus (MRSA)
Experimental: (§1) Phenol Red Dextrose broth tubes were prepared and a small loop of an organism cultured in peptone broth for 24 hours at 37° C. was used to inoculate the tubes in duplicate to a series of ten. […] The inoculated tubes were incubated at a temperature of 37° C. for 24 hours and growth of organism assessed compared to an inoculated tube without presence of product.

Staph aureus (non MRSA) = test system: Staph aureus (non MRSA)
Experimental: as §1

Strep pyogenes = test system: Strep pyogenes
Experimental: as §1

Strep equi = test system: Strep equi
Experimental: as §1

Candida albicans = test system: Candida albicans
Experimental: as §1

Proteus vulgaris = test system: Proteus vulgaris
Experimental: as §1

P. aeruginosa = test system: P. aeruginosa
Experimental: as §1

Measured: growth of organism

CCCCCCCCCCCCCCCC[n+]1ccccc1 [CPC, cetyl pyridinium chloride]
n/g: Staph aureus (MRSA); 0.1 mL CPC (0.004% vol. comp) | Staph aureus (MRSA); 0.2 mL CPC (0.008% vol. comp) | Staph aureus (MRSA); 0.3 mL CPC (0.016% vol. comp) | Staph aureus (MRSA); 0.4 mL CPC (0.032% vol. comp) | Staph aureus (MRSA); 0.5 mL CPC (0.064% vol. comp) | Staph aureus (MRSA); 0.6 mL CPC (0.128% vol. comp) | Staph aureus (MRSA); 0.7 mL CPC (0.256% vol. comp) | Staph aureus (MRSA); 0.8 mL CPC (0.512% vol. comp) | Staph aureus (MRSA); 0.9 mL CPC (1.024% vol. comp) | Staph aureus (MRSA); 1.0 mL CPC (2.048% vol. comp) | Staph aureus (non MRSA); 0.1 mL CPC (0.004% vol. comp) | Staph aureus (non MRSA); 0.2 mL CPC (0.008% vol. comp) | Staph aureus (non MRSA); 0.3 mL CPC (0.016% vol. comp) | Staph aureus (non MRSA); 0.4 mL CPC (0.032% vol. comp) | Staph aureus (non MRSA); 0.5 mL CPC (0.064% vol. comp) | Staph aureus (non MRSA); 0.6 mL CPC (0.128% vol. comp) | Staph aureus (non MRSA); 0.7 mL CPC (0.256% vol. comp) | Staph aureus (non MRSA); 0.8 mL CPC (0.512% vol. comp) | Staph aureus (non MRSA); 0.9 mL CPC (1.024% vol. comp) | Staph aureus (non MRSA); 1.0 mL CPC (2.048% vol. comp) | Strep pyogenes; 0.1 mL CPC (0.004% vol. comp) | Strep pyogenes; 0.2 mL CPC (0.008% vol. comp) | Strep pyogenes; 0.3 mL CPC (0.016% vol. comp) | Strep pyogenes; 0.4 mL CPC (0.032% vol. comp) | Strep pyogenes; 0.5 mL CPC (0.064% vol. comp) | Strep pyogenes; 0.6 mL CPC (0.128% vol. comp) | Strep pyogenes; 0.7 mL CPC (0.256% vol. comp) | Strep pyogenes; 0.8 mL CPC (0.512% vol. comp) | Strep pyogenes; 0.9 mL CPC (1.024% vol. comp) | Strep pyogenes; 1.0 mL CPC (2.048% vol. comp) | Strep equi; 0.1 mL CPC (0.004% vol. comp) | Strep equi; 0.2 mL CPC (0.008% vol. comp) | Strep equi; 0.3 mL CPC (0.016% vol. comp) | Strep equi; 0.4 mL CPC (0.032% vol. comp) | Strep equi; 0.5 mL CPC (0.064% vol. comp) | Strep equi; 0.6 mL CPC (0.128% vol. comp) | Strep equi; 0.7 mL CPC (0.256% vol. comp) | Strep equi; 0.8 mL CPC (0.512% vol. comp) | Strep equi; 0.9 mL CPC (1.024% vol. comp) | Strep equi; 1.0 mL CPC (2.048% vol. comp) | Candida albicans; 0.1 mL CPC (0.004% vol. comp) | Candida albicans; 0.2 mL CPC (0.008% vol. comp) | Candida albicans; 0.3 mL CPC (0.016% vol. comp) | Candida albicans; 0.4 mL CPC (0.032% vol. comp) | Candida albicans; 0.5 mL CPC (0.064% vol. comp) | Candida albicans; 0.6 mL CPC (0.128% vol. comp) | Candida albicans; 0.7 mL CPC (0.256% vol. comp) | Candida albicans; 0.8 mL CPC (0.512% vol. comp) | Candida albicans; 0.9 mL CPC (1.024% vol. comp) | Candida albicans; 1.0 mL CPC (2.048% vol. comp) | Proteus vulgaris; 0.1 mL CPC (0.004% vol. comp) | Proteus vulgaris; 0.2 mL CPC (0.008% vol. comp) | Proteus vulgaris; 0.3 mL CPC (0.016% vol. comp) | Proteus vulgaris; 0.4 mL CPC (0.032% vol. comp) | Proteus vulgaris; 0.5 mL CPC (0.064% vol. comp) | Proteus vulgaris; 0.6 mL CPC (0.128% vol. comp) | Proteus vulgaris; 0.7 mL CPC (0.256% vol. comp) | Proteus vulgaris; 0.8 mL CPC (0.512% vol. comp) | Proteus vulgaris; 0.9 mL CPC (1.024% vol. comp) | Proteus vulgaris; 1.0 mL CPC (2.048% vol. comp) | P. aeruginosa; 0.1 mL CPC (0.004% vol. comp) | P. aeruginosa; 0.2 mL CPC (0.008% vol. comp) | P. aeruginosa; 0.3 mL CPC (0.016% vol. comp) | P. aeruginosa; 0.4 mL CPC (0.032% vol. comp) | P. aeruginosa; 0.5 mL CPC (0.064% vol. comp) | P. aeruginosa; 0.6 mL CPC (0.128% vol. comp) | P. aeruginosa; 0.7 mL CPC (0.256% vol. comp) | P. aeruginosa; 0.8 mL CPC (0.512% vol. comp) | P. aeruginosa; 0.9 mL CPC (1.024% vol. comp) | P. aeruginosa; 1.0 mL CPC (2.048% vol. comp)
